Data: PubChem BioAssay (NCI)
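The compound was tested at five concentrations on cells cultured in 96-well plates, with a 48-hour exposure period. At the GI50, growth is halved. Definition used: TGI = concentration required for complete inhibition of growth.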

Tests used:
Test in all cases: NCI-60 cell line screen, 48 h
MCF7 breast = system: MCF7 breast
SR leukemia = system: SR leukemia
RXF 393 renal = system: RXF 393 renal
IGROV1 ovarian = system: IGROV1 ovarian
OVCAR-3 ovarian = system: OVCAR-3 ovarian
HCT-116 colon = system: HCT-116 colon
SF-295 CNS = system: SF-295 CNS
OVCAR-8 ovarian = system: OVCAR-8 ovarian
OVCAR-4 ovarian = system: OVCAR-4 ovarian
SF-539 CNS = system: SF-539 CNS
M14 melanoma = system: M14 melanoma
NCI-H522 lung = system: NCI-H522 lung
SNB-19 CNS = system: SNB-19 CNS
BT-549 breast = system: BT-549 breast
T-47D breast = system: T-47D breast
SW-620 colon = system: SW-620 colon
SF-268 CNS = system: SF-268 CNS
SK-MEL-28 melanoma = system: SK-MEL-28 melanoma
HOP-62 NSCLC = system: HOP-62 NSCLC
SK-OV-3 ovarian = system: SK-OV-3 ovarian
NCI-H460 lung = system: NCI-H460 lung
A549 NSCLC = system: A549 NSCLC
COLO 205 colon = system: COLO 205 colon
HOP-92 NSCLC = system: HOP-92 NSCLC
LOX IMVI melanoma = system: LOX IMVI melanoma
CAKI-1 renal = system: CAKI-1 renal
MDA-MB-231 breast = system: MDA-MB-231 breast
KM12 colon = system: KM12 colon
DU-145 prostate = system: DU-145 prostate
NCI/ADR-RES ovarian = system: NCI/ADR-RES ovarian
UO-31 renal = system: UO-31 renal
RPMI-8226 leukemia = system: RPMI-8226 leukemia
TK-10 renal = system: TK-10 renal
SK-MEL-2 melanoma = system: SK-MEL-2 melanoma
MOLT-4 leukemia = system: MOLT-4 leukemia
OVCAR-5 ovarian = system: OVCAR-5 ovarian
786-0 renal = system: 786-0 renal
NCI-H23 lung = system: NCI-H23 lung
HCC-2998 colon = system: HCC-2998 colon
SN12C renal = system: SN12C renal
EKVX NSCLC = system: EKVX NSCLC
UACC-62 melanoma = system: UACC-62 melanoma
MDA-MB-435 = system: MDA-MB-435
ACHN renal = system: ACHN renal
MALME-3M melanoma = system: MALME-3M melanoma
HL-60(TB) leukemia = system: HL-60(TB) leukemia
U251 CNS = system: U251 CNS
CCRF-CEM leukemia = system: CCRF-CEM leukemia
NCI-H226 lung = system: NCI-H226 lung
PC-3 prostate = system: PC-3 prostate
SK-MEL-5 melanoma = system: SK-MEL-5 melanoma
HT29 colon = system: HT29 colon
SNB-75 CNS = system: SNB-75 CNS
UACC-257 melanoma = system: UACC-257 melanoma
HCT-15 colon = system: HCT-15 colon

## COc1ccc(CCN2CCC(Nc3nc4ccccc4n3Cc3ccc(F)cc3)CC2)cc1
MCF7 breast
  GI50: 1410 nM
  TGI: 2810 nM
SR leukemia
  GI50: 1580 nM
  TGI: 3830 nM
RXF 393 renal
  GI50: 1160 nM
  TGI: 2440 nM
IGROV1 ovarian
  GI50: 2010 nM
  TGI: 4270 nM
OVCAR-3 ovarian
  GI50: 1660 nM
  TGI: 3070 nM
HCT-116 colon
  GI50: 1210 nM
  TGI: 2440 nM
SF-295 CNS
  GI50: 1650 nM
  TGI: 3260 nM
OVCAR-8 ovarian
  GI50: 2020 nM
  TGI: 4520 nM
OVCAR-4 ovarian
  GI50: 1250 nM
  TGI: 2570 nM
SF-539 CNS
  GI50: 1770 nM
  TGI: 3250 nM
M14 melanoma
  GI50: 1720 nM
  TGI: 3150 nM
NCI-H522 lung
  GI50: 2370 nM
  TGI: 4910 nM
SNB-19 CNS
  GI50: 1770 nM
  TGI: 3930 nM
BT-549 breast
  GI50: 1600 nM
  TGI: 2960 nM
T-47D breast
  GI50: 1970 nM
  TGI: 4380 nM
SW-620 colon
  GI50: 1680 nM
  TGI: 5140 nM
SF-268 CNS
  GI50: 1560 nM
  TGI: 2950 nM
SK-MEL-28 melanoma
  GI50: 1610 nM
  TGI: 3030 nM
HOP-62 NSCLC
  GI50: 1720 nM
  TGI: 3150 nM
SK-OV-3 ovarian
  GI50: 1900 nM
  TGI: 3440 nM
NCI-H460 lung
  GI50: 2670 nM
  TGI: 9540 nM
A549 NSCLC
  GI50: 1820 nM
  TGI: 3750 nM
COLO 205 colon
  GI50: 1520 nM
  TGI: 2980 nM
HOP-92 NSCLC
  GI50: 406 nM
  TGI: 2290 nM
LOX IMVI melanoma
  GI50: 1380 nM
  TGI: 2790 nM
CAKI-1 renal
  GI50: 1520 nM
  TGI: 3240 nM
MDA-MB-231 breast
  GI50: 1450 nM
  TGI: 2880 nM
KM12 colon
  GI50: 1710 nM
  TGI: 3130 nM
DU-145 prostate
  GI50: 1940 nM
  TGI: 3650 nM
NCI/ADR-RES ovarian
  GI50: 1590 nM
  TGI: 3320 nM
UO-31 renal
  GI50: 1290 nM
  TGI: 2620 nM
RPMI-8226 leukemia
  GI50: 1780 nM
  TGI: 4730 nM
TK-10 renal
  GI50: 1820 nM
  TGI: 3380 nM
SK-MEL-2 melanoma
  GI50: 2290 nM
  TGI: 4780 nM
MOLT-4 leukemia
  GI50: 1670 nM
  TGI: 4710 nM
OVCAR-5 ovarian
  GI50: 1660 nM
  TGI: 3700 nM
786-0 renal
  GI50: 1460 nM
  TGI: 2770 nM
NCI-H23 lung
  GI50: 1690 nM
  TGI: 3500 nM
HCC-2998 colon
  GI50: 460 nM
  TGI: 1690 nM
SN12C renal
  GI50: 1510 nM
  TGI: 2960 nM
EKVX NSCLC
  GI50: 1790 nM
  TGI: 5350 nM
UACC-62 melanoma
  GI50: 1410 nM
  TGI: 2800 nM
MDA-MB-435
  GI50: 1500 nM
  TGI: 3000 nM
ACHN renal
  GI50: 1550 nM
  TGI: 2930 nM
MALME-3M melanoma
  GI50: 1720 nM
  TGI: 3400 nM
HL-60(TB) leukemia
  GI50: 1960 nM
  TGI: 3810 nM
U251 CNS
  GI50: 1470 nM
  TGI: 2890 nM
CCRF-CEM leukemia
  GI50: 1870 nM
  TGI: 5450 nM
NCI-H226 lung
  GI50: 1550 nM
  TGI: 3090 nM
PC-3 prostate
  GI50: 1800 nM
  TGI: 5660 nM
SK-MEL-5 melanoma
  GI50: 1320 nM
  TGI: 2600 nM
HT29 colon
  GI50: 591 nM
  TGI: 2360 nM
SNB-75 CNS
  GI50: 1240 nM
  TGI: 2540 nM
UACC-257 melanoma
  GI50: 1670 nM
  TGI: 3480 nM
HCT-15 colon
  GI50: 1510 nM
  TGI: 3160 nM
